The source of these data is patent US20240059689A1, “PURINE DERIVATIVES AS ANTICANCER AGENTS” (Tango Therapeutics, Inc., priority 2021, published 2024).

One assay relates to MDA-MB-436. The assay is described as follows: Viability assay, BRCA1 mutant cell line MDA-MB-436. Format: cell-based. The settings on record: Homo sapiens, MDA-MB-436, viability, BRCA1 mutant MDA-MB-436; read-out: MDA-MB-436 rel IC50. The text has this:
(§1) Table 1 also indicates IC50 values in a viability assay for a non-isogenic pair of BRCA1 mutant (column 5-MDA-MB-436) and BRCA1 WT (column 6—HCC1954) cell lines. These values indicate the effect of treatment with compound on cell survival.

A further assay has as its system monoubiquitinated PCNA. Description: AlphaLISA assay measuring monoubiquitinated PCNA in MDA-MB-436. The settings on record: Homo sapiens, MDA-MB-436, monoubiquitinated PCNA, read-out: Alpha Lisa IC50. Format: cell-based. An excerpt:
Table 1 also indicates IC50 values for exemplary compounds in an AlphaLISA assay measuring monoubiquitinated PCNA in a BRCA1 mutant cell line (MDA-MB-436; column 7).

The next assay deals with HCC1954. The assay is described as follows: Viability assay, BRCA1 WT cell line HCC1954. Format: cell-based. Particulars: Homo sapiens, HCC1954, viability, read-out: HCC1954 rel IC50.
Source text: as §1

In a further assay the target is USP1-UAF1 (Homo sapiens, UniProt O94782). Description: Ubiquitin Rhodamine assay of USP1-UAF1 activity. Format: biochemical. The procedure:
Certain compounds of the disclosure were assessed for USP1-UAF1 activity in a Ubiquitin Rhodamine assay as described in Biology Example 1.

USP1-UAF1, sequence (O94782 whole entry): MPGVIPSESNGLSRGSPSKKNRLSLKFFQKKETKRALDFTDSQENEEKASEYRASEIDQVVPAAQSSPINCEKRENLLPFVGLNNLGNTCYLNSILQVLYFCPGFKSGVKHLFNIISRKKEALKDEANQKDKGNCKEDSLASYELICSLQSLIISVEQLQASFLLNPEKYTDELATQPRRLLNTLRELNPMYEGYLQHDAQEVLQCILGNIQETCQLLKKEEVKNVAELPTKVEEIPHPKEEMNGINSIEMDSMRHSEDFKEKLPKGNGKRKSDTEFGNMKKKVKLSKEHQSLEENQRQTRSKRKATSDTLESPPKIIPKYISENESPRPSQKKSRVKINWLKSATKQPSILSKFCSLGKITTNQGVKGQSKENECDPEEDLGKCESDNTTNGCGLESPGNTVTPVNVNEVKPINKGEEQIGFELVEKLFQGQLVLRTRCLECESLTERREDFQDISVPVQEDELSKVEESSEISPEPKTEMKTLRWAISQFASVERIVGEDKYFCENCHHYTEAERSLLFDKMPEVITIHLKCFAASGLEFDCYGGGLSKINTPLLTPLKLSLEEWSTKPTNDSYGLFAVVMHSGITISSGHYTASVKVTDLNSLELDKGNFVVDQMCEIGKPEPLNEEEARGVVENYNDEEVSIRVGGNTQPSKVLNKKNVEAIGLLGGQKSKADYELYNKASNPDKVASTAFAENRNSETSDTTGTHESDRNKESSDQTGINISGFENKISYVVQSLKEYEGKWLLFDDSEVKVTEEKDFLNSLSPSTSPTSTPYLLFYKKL
USP1-UAF1, sequence (Q8TAF3 whole entry partner): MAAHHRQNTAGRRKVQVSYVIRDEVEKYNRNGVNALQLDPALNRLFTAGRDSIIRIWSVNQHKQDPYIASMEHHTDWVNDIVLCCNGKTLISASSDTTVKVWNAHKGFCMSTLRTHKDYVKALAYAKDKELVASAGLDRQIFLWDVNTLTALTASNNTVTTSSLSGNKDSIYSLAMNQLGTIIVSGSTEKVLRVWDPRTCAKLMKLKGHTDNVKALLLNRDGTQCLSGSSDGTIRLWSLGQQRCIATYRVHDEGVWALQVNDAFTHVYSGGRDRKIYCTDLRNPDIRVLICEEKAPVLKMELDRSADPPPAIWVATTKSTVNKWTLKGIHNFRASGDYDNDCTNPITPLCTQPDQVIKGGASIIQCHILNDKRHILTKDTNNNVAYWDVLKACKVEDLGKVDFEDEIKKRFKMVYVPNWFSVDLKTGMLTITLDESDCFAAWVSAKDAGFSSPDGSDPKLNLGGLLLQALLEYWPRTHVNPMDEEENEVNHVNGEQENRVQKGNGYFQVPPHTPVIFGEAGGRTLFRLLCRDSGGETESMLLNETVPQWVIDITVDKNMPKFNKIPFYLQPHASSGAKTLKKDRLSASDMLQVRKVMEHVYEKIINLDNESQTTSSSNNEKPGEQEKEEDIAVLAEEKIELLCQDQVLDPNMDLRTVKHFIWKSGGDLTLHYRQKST

The IC50 is the concentration that gives 50% inhibition. Take `COc1ncnc(C2CC2)c1-c1ncc2c(n1)n(Cc1ccc(-n3nc(C(F)(F)F)cc3OC)cc1)c(=N)n2CC(F)(F)F` [Example T-117, 2-(4-cyclopropyl-6-methoxy-pyrimidin-5-yl)-9-[[4-[5-methoxy-3-(trifluoromethyl)pyrazol-1-yl]phenyl]methyl]-7-(2,2,2-trifluoroethyl)purin-8-imine]: the IC50 in the assay on MDA-MB-436 was less than 100 nM; in the assay with monoubiquitinated PCNA it was less than 100 nM; in the assay on HCC1954 it was not below 10000 nM; against USP1-UAF1, 30 to 100 nM.
With `COc1ncnc(C2CC2)c1-c1ncc2c(n1)n(Cc1ccc(-c3nc(C(F)(F)F)cn3C)c(F)c1)c(=N)n2CC(F)(F)F` [Example T-118, 2-(4-cyclopropyl-6-methoxypyrimidin-5-yl)-9-(3-fluoro-4-(1-methyl-4-(trifluoromethyl)-1H-imidazol-2-yl)benzyl)-7-(2,2,2-trifluoroethyl)-7H-purin-8(9H)-imine], the IC50 in the assay on MDA-MB-436 was less than 100 nM; with monoubiquitinated PCNA, less than 100 nM; in the assay on HCC1954 it was not below 10000 nM; at USP1-UAF1, 100 to 10000 nM.
With `CCOc1ncnc(C2CC2)c1-c1ncc2c(n1)n(Cc1ccc(-c3nc(C(F)(F)F)cn3C)cc1)c(=N)n2CC(F)(F)F` [Example T-119, 2-(4-cyclopropyl-6-ethoxy-pyrimidin-5-yl)-9-[[4-[1-methyl-4-(trifluoromethyl)imidazol-2-yl]phenyl]methyl]-7-(2,2,2-trifluoroethyl)purin-8-imine], the IC50 in the assay with MDA-MB-436 was 100 to 250 nM; in the assay on monoubiquitinated PCNA, 100 to 250 nM; in the assay on HCC1954, not below 10000 nM; against USP1-UAF1, 100 to 10000 nM.
As for `COc1ncnc(C2CC2)c1-c1ncc2c(n1)n(Cc1ccc(-c3nc(C(F)(F)F)cn3C3CCC3)cc1)c(=N)n2CC(F)(F)F` [Example T-120, 9-[[4-[1-cyclobutyl-4-(trifluoromethyl)imidazol-2-yl]phenyl]methyl]-2-(4-cyclopropyl-6-methoxy-pyrimidin-5-yl)-7-(2,2,2-trifluoroethyl)purin-8-imine], the concentration for half-maximal inhibition (IC50) in the assay on MDA-MB-436 is less than 100 nM; in the assay on monoubiquitinated PCNA it was less than 100 nM; with HCC1954, not below 10000 nM; against USP1-UAF1, less than 30 nM.
Consider `COc1nccc(F)c1-c1ncc2c(n1)n(Cc1ccc(-c3nc(C(F)(F)F)cn3C)cc1)c(=N)n2CC(F)(F)F` [Example T-121, 2-(4-fluoro-2-methoxy-3-pyridyl)-9-[[4-[1-methyl-4-(trifluoromethyl)imidazol-2-yl]phenyl]methyl]-7-(2,2,2-trifluoroethyl)purin-8-imine], for which the IC50 is 100 to 250 nM in the assay with MDA-MB-436, 250 to 10000 nM with monoubiquitinated PCNA, not below 10000 nM in the assay on HCC1954 and 30 to 100 nM against USP1-UAF1.
Consider `CNc1nc(OC)c(-c2ncc3c(n2)n(Cc2ccc(-c4nc(C(F)(F)F)cn4C)cc2)c(=N)n3C)c(C2CC2)n1` [Example T-122, 4-cyclopropyl-5-[8-imino-7-methyl-9-[[4-[1-methyl-4-(trifluoromethyl)imidazol-2-yl]phenyl]methyl]purin-2-yl]-6-methoxy-N-methyl-pyrimidin-2-amine], for which the IC50 in the assay on MDA-MB-436 is 100 to 250 nM; in the assay on monoubiquitinated PCNA, 250 to 10000 nM; in the assay on HCC1954, not below 10000 nM; against USP1-UAF1, 100 to 10000 nM.
With `COc1ncnc(C2CC2)c1-c1ncc2c(n1)n(Cc1ccc(-c3nc(C(F)(F)F)cn3C)cc1)c(=N)n2CC(F)F` [Example T-123, 2-(4-cyclopropyl-6-methoxy-pyrimidin-5-yl)-7-(2,2-difluoroethyl)-9-[[4-[1-methyl-4-(trifluoromethyl)imidazol-2-yl]phenyl]methyl]purin-8-imine], the IC50 was less than 100 nM with MDA-MB-436, less than 100 nM in the assay on monoubiquitinated PCNA, not below 10000 nM in the assay on HCC1954 and 30 to 100 nM against USP1-UAF1.
Regarding `COc1cc(C(F)(F)F)nn1-c1ccc(Cn2c(=N)n(CC(F)(F)F)c3cnc(-c4c(C)cnn4C(C)C)nc32)cc1` [Example T-124, 2-(2-isopropyl-4-methyl-pyrazol-3-yl)-9-[[4-[5-methoxy-3-(trifluoromethyl)pyrazol-1-yl]phenyl]methyl]-7-(2,2,2-trifluoroethyl)purin-8-imine], the IC50 was less than 100 nM with MDA-MB-436, less than 100 nM with monoubiquitinated PCNA, not below 10000 nM in the assay on HCC1954 and less than 30 nM at USP1-UAF1.
As for `Cn1cc(C(F)(F)F)nc1-c1ccc(Cn2c(=N)n(CC(F)(F)F)c3cnc(-c4cccnc4OC(F)F)nc32)cc1` [Example T-125, 2-[2-(difluoromethoxy)-3-pyridyl]-9-[[4-[1-methyl-4-(trifluoromethyl)imidazol-2-yl]phenyl]methyl]-7-(2,2,2-trifluoroethyl)purin-8-imine], the IC50 was in the range of 100 to 250 nM in the assay on MDA-MB-436, 100 to 250 nM with monoubiquitinated PCNA, 250 to 10000 nM with HCC1954 and 30 to 100 nM against USP1-UAF1.
With `COc1ncnc(C2CC2)c1-c1ncc2c(n1)n(Cc1cc(F)c(-c3nc(C(F)(F)F)cn3C)c(F)c1)c(=N)n2CC(F)(F)F` [Example T-126, 2-(4-cyclopropyl-6-methoxy-pyrimidin-5-yl)-9-[[3,5-difluoro-4-[1-methyl-4-(trifluoromethyl)imidazol-2-yl]phenyl]methyl]-7-(2,2,2-trifluoroethyl)purin-8-imine], the IC50 with MDA-MB-436 was less than 100 nM; in the assay with monoubiquitinated PCNA, less than 100 nM; in the assay with HCC1954, not below 10000 nM; against USP1-UAF1, 30 to 100 nM.
Consider `COc1ncnc(C2CC2)c1-c1ncc2c(n1)n(Cc1cc(F)c(-n3nc(C(F)(F)F)cc3OC)c(F)c1)c(=N)n2CC(F)(F)F` [Example T-127], for which the IC50 with MDA-MB-436 was less than 100 nM; in the assay on monoubiquitinated PCNA it was less than 100 nM; with HCC1954, not below 10000 nM; against USP1-UAF1, 30 to 100 nM.
With `COc1ncnc(C2CC2)c1-c1ncc2c(n1)n(Cc1ccc(-c3nc(C(F)(F)F)sc3C)cc1)c(=N)n2CC(F)(F)F` [Example T-128], the IC50 with MDA-MB-436 was less than 100 nM; with monoubiquitinated PCNA, less than 100 nM; in the assay with HCC1954, 250 to 10000 nM; against USP1-UAF1 it was less than 30 nM.
For `Cc1cnn(C(C)C)c1-c1ncc2c(n1)n(Cc1ccc(-c3nc(C(F)(F)F)cn3C)cc1)c(=N)n2CC(F)(F)F` [Example T-130, 2-(2-isopropyl-4-methyl-pyrazol-3-yl)-9-[[4-[1-methyl-4-(trifluoromethyl)imidazol-2-yl]phenyl]methyl]-7-(2,2,2-trifluoroethyl)purin-8-imine], the IC50 with MDA-MB-436 was less than 100 nM; in the assay on monoubiquitinated PCNA, less than 100 nM; in the assay with HCC1954 it was not below 10000 nM; against USP1-UAF1 it was less than 30 nM.
As to `COc1ncnc(C2CC2)c1-c1ncc2c(n1)n([C@H](C)c1ccc(-c3nc(C(F)(F)F)cn3C)cc1)c(=N)n2C` [Example T-131, 2-(4-cyclopropyl-6-methoxy-pyrimidin-5-yl)-7-methyl-9-[(1R)-1-[4-[1-methyl-4-(trifluoromethyl)imidazol-2-yl]phenyl]ethyl]purin-8-imine], the IC50 is less than 100 nM in the assay with MDA-MB-436, less than 100 nM in the assay on monoubiquitinated PCNA, not below 10000 nM in the assay with HCC1954 and 30 to 100 nM against USP1-UAF1.
Turning to `CCn1cc(C(F)(F)F)nc1-c1ccc(Cn2c(=N)n(CC(F)(F)F)c3cnc(-c4c(OC)ncnc4C4CC4)nc32)cc1` [Example T-132], the IC50 was less than 100 nM in the assay on MDA-MB-436, less than 100 nM in the assay on monoubiquitinated PCNA, not below 10000 nM in the assay with HCC1954 and 30 to 100 nM on USP1-UAF1.
